The subject of experiment [1] is vancomycin-resistant Enterococcus strain B42762. Nature of the experiment: Inhibition of bacterial growth (MIC), VRE. It counts as cell-based. The conditions noted are these: 16 to 18 hours, 37° C. The method, boiled down:
(§1)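 Broth microdilution; inoculum 1×10^5 CFU/mL, LB or BHI; 11 two-fold dilutions, typically 80-0.078 μg/mL; 1% DMSO final; 37° C., shaken, 16-18 h; OD570 read-out. MIC = lowest concentration without growth.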

For experiment [2], the system named is Enterococcus faecalis strain 29212. Nature of the experiment: Inhibition of bacterial growth (MIC), Efcl. Conditions: 16 to 18 hours, 37° C. The class given is cell-based. The gist of the method:
as §1

Another experiment addresses T1, E. coli pol IIIE (Escherichia coli, UniProt P10443).
T1 construct: purchased Enzyco, Denver, Colo
In words: DNA polymerase assay, E. coli pol IIIE. It counts as biochemical. Conditions: 80 μg/mL (190-260 μM) final concentration, all four dNTPs. The gist of the method: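 Incorporation of 3H label into activated calf thymus DNA (0.4 mg/mL) from 10 μM of all four dNTPs, 10 min at 30 °C in pH 7.5 Tris/magnesium acetate, compounds in 1% DMSO. Reactions started with 0.025–0.06 units recombinant polymerase, stopped with cold TCA; IC50 and percent inhibition relative to DMSO control.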

Experiment [3] relates to Escherichia coli strain J53. Nature of the experiment: Inhibition of bacterial growth (MIC), Ec. The class given is cell-based. Conditions: 16 to 18 hours, 37° C. The method, boiled down: as §1
The target in experiment [4] is T2, B. subtilis pol IIIE (Bacillus subtilis, UniProt O34623).
T2 construct: made in house
T2 sequence (O34623 whole entry): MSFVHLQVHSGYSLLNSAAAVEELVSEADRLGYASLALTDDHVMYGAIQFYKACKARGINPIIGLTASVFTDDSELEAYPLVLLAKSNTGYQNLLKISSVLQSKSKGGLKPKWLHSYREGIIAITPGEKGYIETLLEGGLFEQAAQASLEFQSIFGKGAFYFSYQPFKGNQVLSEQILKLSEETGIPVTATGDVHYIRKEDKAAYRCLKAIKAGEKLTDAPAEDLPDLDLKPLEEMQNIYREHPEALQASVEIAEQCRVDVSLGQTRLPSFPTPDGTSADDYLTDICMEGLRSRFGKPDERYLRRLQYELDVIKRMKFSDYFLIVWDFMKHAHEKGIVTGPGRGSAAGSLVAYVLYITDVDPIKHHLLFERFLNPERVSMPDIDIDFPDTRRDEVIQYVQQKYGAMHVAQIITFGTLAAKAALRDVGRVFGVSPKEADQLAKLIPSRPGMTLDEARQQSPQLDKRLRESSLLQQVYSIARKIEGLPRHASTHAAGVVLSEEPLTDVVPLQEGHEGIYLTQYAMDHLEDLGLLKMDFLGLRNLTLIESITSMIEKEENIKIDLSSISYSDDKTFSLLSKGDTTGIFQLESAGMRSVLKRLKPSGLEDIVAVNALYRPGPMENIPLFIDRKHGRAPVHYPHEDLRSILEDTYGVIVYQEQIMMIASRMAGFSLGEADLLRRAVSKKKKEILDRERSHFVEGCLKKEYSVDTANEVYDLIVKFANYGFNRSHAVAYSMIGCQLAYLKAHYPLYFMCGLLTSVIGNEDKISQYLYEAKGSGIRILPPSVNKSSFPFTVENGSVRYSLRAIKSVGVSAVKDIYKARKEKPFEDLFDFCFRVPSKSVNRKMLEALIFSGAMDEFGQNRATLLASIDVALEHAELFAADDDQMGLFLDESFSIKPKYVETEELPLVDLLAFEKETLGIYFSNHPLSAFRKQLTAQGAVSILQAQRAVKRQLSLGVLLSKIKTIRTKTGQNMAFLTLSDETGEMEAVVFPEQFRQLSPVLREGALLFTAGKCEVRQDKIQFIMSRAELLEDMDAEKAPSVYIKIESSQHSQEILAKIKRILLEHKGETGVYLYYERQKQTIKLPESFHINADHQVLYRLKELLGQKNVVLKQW
In words: DNA polymerase assay, B. subtilis pol IIIE. It counts as biochemical.

Experiment [5] addresses T3, B. subtilis pol IIIC (Bacillus subtilis, UniProt P13267).
T3 construct: made in house
In words: DNA polymerase assay, B. subtilis pol IIIC. The class given is biochemical.

The test system of experiment [6] is E. faecium clinical isolate. Nature of the experiment: Inhibition of bacterial growth (MIC), Efcm. It counts as cell-based. The conditions noted are these: 16 to 18 hours, 37° C. The method, boiled down: as §1
For experiment [7], the system named is methicillin-resistant S. aureus strain 1094. In words: Inhibition of bacterial growth (MIC), MRSA. The class given is cell-based, Staphylococcus aureus. The conditions noted are these: 16 to 18 hours, 37° C. The method, boiled down: as §1
The test system of experiment [8] is Staphylococcus aureus strain IP 8. In words: Inhibition of bacterial growth (MIC), Sa. It counts as cell-based. The conditions noted are these: 37° C. The gist of the method: as §1
For another experiment, the system named is test strains of bacteria. Nature of the experiment: Inhibition of bacterial growth, whole panel of test strains. The class given is cell-based. How it is done:
Each compound was assayed against a panel of a strain of Bacillus subtilis, of strains of antibiotic-resistant and sensitive Enterococcus and Staphylococcus species, and of a strain of the Gram-negative bacterium Escherichia coli. Compounds were dissolved in DMSO at 100× the desired highest concentration and added to one well of a 96-well microassay plate. Two-fold serial drug dilutions were made across the plate in DMSO to yield 11 concentrations (usually 80-0.078 μg/mL) plus an untreated control. Drugs were then transferred to fresh plates using 1.5 μL per well. Log phase cultures were diluted to yield a concentration of 1×10^5 colony forming units/mL in either LB or BHI medium and transferred to the plates containing drug for a final volume of 150 μL. Each well, including the DMSO controls, contained a final concentration of 1% DMSO. Plates were incubated with shaking at 37° C. for 16 to 18 hours. Cell growth was determined by measuring optical density (570 nm, 1 cm path length) in a microplate reader. MIC (minimum inhibitory concentration) is equivalent to the lowest concentration at which growth is not observed. The bacterial strains and MIC determinations have been well characterized and are described elsewhere (Tarantino et al., Antimicrob. Agents Chemother., 43: 1982-1987 (1999); Daly et al., Antimicrob. Agents Chemother., 44: 2217-2221 (2000)).

The target in experiment [9] is T2, B. subtilis pol IIIE. Nature of the experiment: DNA polymerase assay, B. subtilis pol IIIE. The class given is biochemical. This is another data set of the same source.
Experiment [10] concerns Bacillus subtilis strain BD54. In words: Inhibition of bacterial growth (MIC), Bs. It counts as cell-based. Conditions: 16 to 18 hours, 37° C. The gist of the method: as §1
The subject of the next experiment is S. aureus Smith strain. Nature of the experiment: Inhibition of bacterial growth (MIC), Sm. The class given is cell-based, Staphylococcus aureus. Conditions: 16 to 18 hours, 37° C. The gist of the method: as §1
Experiment [11] deals with T3, B. subtilis pol IIIC. In words: Classical enzyme kinetic analyses (Lineweaver-Burk) with pol IIIC. The class given is biochemical. Conditions: variable substrate dGTP; Compound 17 at 0, 20, 60 μM; HB-EMAU at 0, 1.6, 4.8 μM. How it is done: The variable substrate in the experiments for FIGS. 1A and 1B was dGTP. See text for details.
Classical enzyme kinetic analyses were performed with Compound 17 and pol IIIC in which reaction velocity was measured as a function of each substrate (dGTP) concentration at several inhibitor concentrations (0, 20, and 60 μM). The results are graphed in a double reciprocal plot by the method of Lineweaver and Burk in FIG. 1A and show the effect of varying dGTP.
Compounds of the anilinouracil (AU) family, classical DNA polymerase inhibitors, inhibit pol IIIC strictly by “competitive” inhibition. An example is shown in the double reciprocal plot in FIG. 1B for the compound N3-hydroxybutyl 6-(3′-ethyl-4′-methylanilino) uracil (HB-EMAU), tested at 0, 1.6, and 4.8 μM. Such AU compounds compete with the dGTP substrate for binding to the enzyme (Clements et al., J. Biol. Chem. 250, 522-526 (1975)). “Noncompetive” inhibitors are exemplified by the class of HIV reverse transcriptase inhibitors, 4,5,6,7-tetrahydro-5-methylimidazo[4,5,1-jk][1,4]benzodiazepin-2(1H)-one (TIBO), i.e., TIBO compounds bind a site adjacent to the active site (Spence et al., Science 267, 988-993 (1995)). In contrast, the data in FIG. 1A clearly indicate that Compound 17, a pyrazole carboxylic acid hydrazide, inhibits pol IIIC by an “uncompetitive” mechanism.

[12] abbreviates: 80 μg/mL (190-260 μM) final concentration, all four dNTPs.

Experimental findings from patent US20060258729A1, “Antibacterial pyrazole carboxylic acid hydrazides” (priority 2002, published 2006) are described below.

Structures are written as SMILES. pIC50: −log10 of the molar value. Converted amounts (≈) assume the structure as drawn. “Also recorded” adds a separate entry of the source.

T1 sequence (P10443 whole entry): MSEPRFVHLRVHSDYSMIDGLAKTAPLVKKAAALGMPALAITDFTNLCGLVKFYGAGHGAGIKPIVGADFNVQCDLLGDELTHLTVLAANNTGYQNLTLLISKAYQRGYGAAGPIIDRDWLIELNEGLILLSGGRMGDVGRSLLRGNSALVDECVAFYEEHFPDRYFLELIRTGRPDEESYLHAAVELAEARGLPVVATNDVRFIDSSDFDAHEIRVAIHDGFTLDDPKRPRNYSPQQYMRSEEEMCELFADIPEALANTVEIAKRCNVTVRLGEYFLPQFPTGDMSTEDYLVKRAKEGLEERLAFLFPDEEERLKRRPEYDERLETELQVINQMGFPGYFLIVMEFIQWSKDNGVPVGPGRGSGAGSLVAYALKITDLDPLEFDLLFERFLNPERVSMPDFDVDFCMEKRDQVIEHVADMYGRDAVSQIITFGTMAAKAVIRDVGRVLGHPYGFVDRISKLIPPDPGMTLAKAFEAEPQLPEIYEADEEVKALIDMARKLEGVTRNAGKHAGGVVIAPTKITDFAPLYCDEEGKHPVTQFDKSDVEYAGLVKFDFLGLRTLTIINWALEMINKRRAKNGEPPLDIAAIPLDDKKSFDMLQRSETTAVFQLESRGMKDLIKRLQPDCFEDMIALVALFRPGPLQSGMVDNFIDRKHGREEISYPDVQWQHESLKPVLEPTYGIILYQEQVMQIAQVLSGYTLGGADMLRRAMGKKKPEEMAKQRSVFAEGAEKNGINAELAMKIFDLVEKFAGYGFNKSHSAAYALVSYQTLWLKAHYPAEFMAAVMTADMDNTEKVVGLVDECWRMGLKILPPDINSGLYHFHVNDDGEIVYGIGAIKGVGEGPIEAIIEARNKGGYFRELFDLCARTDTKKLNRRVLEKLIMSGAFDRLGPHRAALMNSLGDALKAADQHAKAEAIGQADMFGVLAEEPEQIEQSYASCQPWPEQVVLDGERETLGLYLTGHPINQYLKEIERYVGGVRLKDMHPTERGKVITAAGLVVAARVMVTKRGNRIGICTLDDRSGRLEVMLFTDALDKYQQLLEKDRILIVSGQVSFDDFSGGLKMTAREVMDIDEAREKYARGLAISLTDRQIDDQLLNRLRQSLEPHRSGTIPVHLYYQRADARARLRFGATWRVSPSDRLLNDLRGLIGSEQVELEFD
T3 sequence (P13267 whole entry): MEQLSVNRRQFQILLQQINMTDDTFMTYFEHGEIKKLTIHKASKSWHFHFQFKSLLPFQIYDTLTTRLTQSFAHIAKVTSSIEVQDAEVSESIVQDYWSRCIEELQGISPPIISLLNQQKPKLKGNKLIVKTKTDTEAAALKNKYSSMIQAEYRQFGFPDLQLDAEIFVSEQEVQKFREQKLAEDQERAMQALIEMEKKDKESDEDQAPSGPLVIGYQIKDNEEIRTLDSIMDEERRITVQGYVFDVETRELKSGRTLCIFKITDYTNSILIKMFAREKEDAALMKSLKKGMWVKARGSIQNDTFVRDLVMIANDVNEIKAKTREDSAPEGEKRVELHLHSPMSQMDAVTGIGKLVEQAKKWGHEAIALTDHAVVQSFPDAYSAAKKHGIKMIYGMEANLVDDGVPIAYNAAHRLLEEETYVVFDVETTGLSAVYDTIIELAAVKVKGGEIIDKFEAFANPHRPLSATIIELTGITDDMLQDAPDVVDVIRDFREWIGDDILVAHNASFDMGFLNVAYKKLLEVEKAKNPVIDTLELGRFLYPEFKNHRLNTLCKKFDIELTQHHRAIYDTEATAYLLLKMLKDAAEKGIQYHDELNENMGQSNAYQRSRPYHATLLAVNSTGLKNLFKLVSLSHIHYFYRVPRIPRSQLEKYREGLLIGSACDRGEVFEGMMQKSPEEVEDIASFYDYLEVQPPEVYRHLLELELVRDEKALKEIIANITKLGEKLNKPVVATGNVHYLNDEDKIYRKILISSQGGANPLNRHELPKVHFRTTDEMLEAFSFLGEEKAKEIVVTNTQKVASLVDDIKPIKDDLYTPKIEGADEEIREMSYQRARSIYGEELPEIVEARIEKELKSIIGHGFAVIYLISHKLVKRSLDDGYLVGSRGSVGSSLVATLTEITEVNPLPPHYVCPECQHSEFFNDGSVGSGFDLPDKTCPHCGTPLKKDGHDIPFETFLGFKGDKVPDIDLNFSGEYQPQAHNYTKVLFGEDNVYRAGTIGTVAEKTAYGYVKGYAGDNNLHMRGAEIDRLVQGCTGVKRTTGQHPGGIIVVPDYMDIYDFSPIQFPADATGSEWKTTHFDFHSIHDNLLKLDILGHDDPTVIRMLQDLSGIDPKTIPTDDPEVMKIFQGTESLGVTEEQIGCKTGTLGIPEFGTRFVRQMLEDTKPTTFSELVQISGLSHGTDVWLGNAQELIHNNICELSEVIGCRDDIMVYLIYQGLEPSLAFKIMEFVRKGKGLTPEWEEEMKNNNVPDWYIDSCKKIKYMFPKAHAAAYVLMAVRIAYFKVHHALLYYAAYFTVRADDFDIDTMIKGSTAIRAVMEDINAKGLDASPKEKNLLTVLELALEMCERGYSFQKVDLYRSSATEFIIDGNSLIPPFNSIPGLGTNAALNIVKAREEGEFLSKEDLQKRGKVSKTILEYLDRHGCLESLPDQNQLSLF

A word on the inhibition: it is the percentage by which the read-out fell short of the control. The pIC50 is −log10 of the IC50, conventionally taken in molar units. In the case of `COc1cc(C=NNC(=O)c2cc(-c3ccccc3)n[nH]2)cc(OC)c1OC` [Compound 1], the MIC was 20 µg/mL (≈ 52.6 µM) in experiment [1] (VRE, read-out: Minimum Inhibitory Concentration for Bacterial Growth, VRE); 10 µg/mL (≈ 26.3 µM) in experiment [2] (read-out: Minimum Inhibitory Concentration for Bacterial Growth, Efcl); above 80 µg/mL in experiment [3] (read-out: Minimum Inhibitory Concentration for Bacterial Growth, Ec); 20 µg/mL (≈ 52.6 µM) in experiment [6] (Enterococcus faecium, read-out: Minimum Inhibitory Concentration for Bacterial Growth, Efcm); 10 µg/mL (≈ 26.3 µM) in [7] (Staphylococcus aureus, MRSA, read-out: Minimum Inhibitory Concentration for Bacterial Growth, MRSA); 3 µg/mL (≈ 7.89 µM) in experiment [8] (IP8, 16 to 18 hours, read-out: Minimum Inhibitory Concentration for Bacterial Growth, Sa). In addition, the MIC in experiment [10] (read-out: Minimum Inhibitory Concentration for Bacterial Growth, Bs) was 3 µg/mL (≈ 7.89 µM); in the experiment with S. aureus Smith strain (Staphylococcus aureus, read-out: Minimum Inhibitory Concentration for Bacterial Growth, Sm) it was 5 µg/mL (≈ 13.1 µM). Further, the inhibition at 80 µg/mL on E. coli pol IIIE (read-out: Percent Enzymatic Inhibition E. coli pol IIIE) worked out at 0.4%; on B. subtilis pol IIIC [5] (80 μg/mL (190-260 μM) final concentration, all four dNTPs, read-out: Percent Enzymatic Inhibition B. subtilis pol IIIC), 14.3%. The pIC50 on B. subtilis pol IIIE [4] (B. subtilis Pol IIIE IC50, −dATP, in the absence of dATP) was 4.12; on B. subtilis pol IIIE [4] (B. subtilis Pol IIIE IC50, −dCTP, in the absence of dCTP) it was 4.21; at B. subtilis pol IIIE [4] (B. subtilis Pol IIIE IC50, −dGTP, in the absence of dGTP), 4.29; at B. subtilis pol IIIC [5] (B. subtilis Pol IIIC IC50, 4 dNTPs, in the presence of all four dNTP substrates), 3.73; on B. subtilis pol IIIC [5] (B. subtilis Pol IIIC IC50, −dATP, in the absence of dATP), 5.00; at B. subtilis pol IIIC [5] (B. subtilis Pol IIIC IC50, −dCTP, in the absence of dCTP) it was 4.36. Besides, the pIC50 against B. subtilis pol IIIC [5] (B. subtilis Pol IIIC IC50, −dGTP, in the absence of dGTP) is 4.85; on B. subtilis pol IIIE [9] (B. subtilis Pol IIIE IC50, 4 dNTPs, in the presence of all four dNTP substrates), 3.78. Besides, the “Inhibition of bacterial growth, result in words (rank of MIC values)” value in the experiment with test strains of bacteria is given as “second”.

On to `CCOc1cccc(-c2cc(C(=O)NN=Cc3cccc(OC)c3O)[nH]n2)c1` [Compound 7], for which the “Minimum Inhibitory Concentration for Bacterial Growth, VRE” value in [1] is above 80 µg/mL. Moreover, in experiment [2], the “Minimum Inhibitory Concentration for Bacterial Growth, Efcl” value is above 80 µg/mL. Besides, the “Percent Enzymatic Inhibition E. coli pol IIIE” value on E. coli pol IIIE is recorded as “not sufficient to show a significant inhibition; also recorded: Inactive”. Also, in [3], the “Minimum Inhibitory Concentration for Bacterial Growth, Ec” value is above 80 µg/mL. Besides, the “Percent Enzymatic Inhibition B. subtilis pol IIIC” value at B. subtilis pol IIIC [5] (setting [12]) is “not sufficient to show a significant inhibition; also recorded: Inactive”. Also, in experiment [6], the “Minimum Inhibitory Concentration for Bacterial Growth, Efcm” value is above 80 µg/mL. The “Minimum Inhibitory Concentration for Bacterial Growth, MRSA” value in experiment [7] came out at 30 µg/mL. Moreover, the “Minimum Inhibitory Concentration for Bacterial Growth, Sa” value in experiment [8] (16 to 18 hours) amounted to 30 µg/mL. Also, the “Inhibition of bacterial growth, result in words (rank of MIC values)” value in the experiment on test strains of bacteria is given as “able to inhibit growth”. The “Percent Enzymatic Inhibition B. subtilis pol IIIE” value at B. subtilis pol IIIE [9] (setting [12]) is “not sufficient to show a significant inhibition; also recorded: Inactive”. Moreover, the “Minimum Inhibitory Concentration for Bacterial Growth, Bs” value in [10] turned out to be 80 µg/mL. The “Minimum Inhibitory Concentration for Bacterial Growth, Sm” value in the experiment with S. aureus Smith strain worked out at 40 µg/mL.

As for `CCc1cc(Nc2cc(=O)n(CCCCO)c(=O)[nH]2)ccc1C` [HB-EMAU, N3-hydroxybutyl 6-(3′-ethyl-4′-methylanilino) uracil, reference compound], the “Mechanism of inhibition of pol IIIC (double reciprocal plot)” value at B. subtilis pol IIIC [11] is “competitive inhibition mechanism”.
